Patent US10314777B2, “Delivery of hydrophobic bioactive agents” (priority 2010, dated 2019)

Assay: Solubility of the retinoate in the carrier GRANSIL GTS
Format: physicochemical
From the text: In some embodiments, a bioactive agent is a vitamin A derivative such as a retinoid. As an example, some embodiments include hydroxyanasatil retinoate, a form of all-trans retinoate sold by Concert, LLC, Memphis, Tenn., optionally in an amount of 0.1 percent by weight. This material is insoluble at this concentration in the carrier sold under the tradename GRANSIL GTS, which is a mixture of ethyl trisiloxane and polysilicone-11. […] Upon exposure to the environment for application to the skin, the carrier volatilizes allowing the crystalline retinoate to resolubilize in the solvent for increased penetration of the skin.

- solubility in carrier GRANSIL GTS (0.1 percent by weight in ethyl trisiloxane and polysilicone-11): insoluble
Compound: COc1ccc(C(=O)COC(=O)\C=C(C)/C=C/C=C(C)/C=C/C2=C(C)CCCC2(C)C)cc1 [hydroxyanasatil retinoate]
- state in carrier GRANSIL GTS with non-volatile solvent (0.1 percent by weight, dimethyl isosorbide added at 0.8%): mixed state of solubilized material and crystalline material
